Experimental data reported in publication PMC4809600, “The Influence of Chronic Wound Extracts on Inflammatory Cytokine and Histatin Stability” (PLoS ONE, 2016).

What was measured:
dermal fibroblasts = assay: Fibroblast wound healing scratch assay (migration); type: cell-based, human; conditions: serum-free medium, histatins 5 μM, rhIL-6 125 ng/ml, rhCXCL8 250 ng/ml, (E0-E96)/(U0-U96), unexposed = 1; for Migration of dermal fibroblasts in scratch assay, 8 h exposure: 8 h exposure then 88 h without, read at 96 h; for Migration of dermal fibroblasts in scratch assay, 96 h exposure: continuous 96 h exposure
Procedure: Dermal fibroblasts were isolated from healthy human abdominal skin from patients undergoing corrective abdominal plastic surgery. After removal of all adipose tissue, the skin was washed in PBS and incubated overnight on dispase II (Roche, Mannheim, Germany) at 4°C. The next day, epidermis was removed and discarded and the dermis was incubated in collagenase type II (Gibco, Life Technologies, Grand Island, USA)/dispase II in Hanks balanced salt solution (HBSS) (Gibco) at 37°C for 2–3 h. Fibroblast medium consisting of DMEM (Lonza, Verviers, Belgium) containing 1% ultroserG (UG) (Biosepra, Cergy-Saint-Christopher, France) and 1% penicillin-streptomycin (P/S) (Gibco) was added and the solution was passed through an 100 μm and 40 μm cell strainer (Becton Dickinson Falcon, Erembodegem, Belgium). A single cell suspension was seeded at ± 3.5 x 10^4 cells cm^2 and further cultured in fibroblast medium. Medium was changed twice a week and cultures were passaged when 90% confluent using 0.5mM EDTA/0.05% trypsin (Gibco). The cells were maintained at 37°C in a humidified atmosphere containing 5% CO2 and used for experiments at passage 3.
A wound healing scratch assay was performed to determine the effect of histatins, rhIL-6 and rhCXCL8 on fibroblast migration. Confluent monolayers of fibroblasts in a 48-well plate (Costar, Corning Incorporated, New York, USA) were incubated with serum-free medium (DMEM containing 1% P/S and 0.1% bovine serum albumin (Sigma-Aldrich)) for 96 h to ensure minimum spontaneous migration. Next, a scratch was drawn with a disposable plastic pipette tip. Cultures were exposed to Hst1, cHst1, Hst2 and mad-Hst1 (all used at a concentration of 5μM), rhIL-6 (125 ng/ml), rhCXCL8 (250 ng/ml) and vehicle (H2O) in serum free medium. Two experimental set-ups were studied: i) cells were exposed only during the first 8 h to histatins and cytokines and then transferred to vehicle supplemented medium for an additional 88 h; or ii) cells were exposed to histatins and cytokines during the entire 96 h study period. Phase contrast micrographs were taken directly after drawing the scratch and after four days (96 h) of exposure. Data were analyzed using an image processing algorithm that has been described in detail in our previous work. The area of the scratch covered by migrating fibroblasts was determined using the following equation: (E0-E96)/(U0-U96), in which: E = exposure to a condition (IL-6, CXCL8 and histatins); U = unexposed (serum-free medium); E0 and U0 = area of the scratch at T = 0 h; E96 and U96 = area of the scratch (not covered with cells) after 96 h. In this way, in each exposed group (IL-6, CXCL8, histatins) the resurfaced area at 96 h is compared to its own 0 h time point and then set relative to the unexposed group (serum-free medium).

[1] = Stability in chronic wound extracts (CWE), capillary zone electrophoresis; type: in vitro ADME, human; conditions: 37°C, 96 h, CZE; for Starting material remaining intact after 96 h in CWE: 1 mg/ml in PBS mixed 1:1 with CWE (1 mg/ml protein, pools of 5 donors), 0 h = 100%, mean of 3 independent experiments; for Degradation in CWE in 96 h: incubation with chronic wound extracts
Text: Debridement tissue was obtained from chronic ulcers of 15 patients with therapy resistant (arterio-venous) leg ulcers, according to procedures described earlier. In brief, moist, easily removable debridement material, essentially blood free, was collected from the ulcer surface and divided equally into two different solutions: (i) PBS (B. Braun, Melsungen, Germany), (ii) PBS with protease inhibitor cocktail (PIC) (1:100; v/v) (Sigma-Aldrich, Steinheim, Germany). The mixtures were gently shaken for 1 h at 4°C to elute proteins and centrifuged; the supernatants were stored at -80°C. Total protein content of the supernatant was measured using the BioRad Protein Assay (BioRad Laboratories, Hercules, California, USA) essentially as described by the supplier. Samples were diluted to 1 mg/ml protein and extracts of five different donors were pooled; three different pools of five donors were used in all experiments. The samples are referred to as chronic wound extracts (CWE).
To determine the stability of the different peptides in CWE, histatins and cytokines were dissolved in PBS at 1 mg/ml. Histatins and cytokines were incubated in a 1:1 ratio with (i) PBS, (ii) CWE in PBS, or (iii) CWE in PBS containing PIC, in a total volume of 25 μl. Imidazole (Sigma-Aldrich) was added as an internal standard, with a final concentration of 100 μg/ml. The mixtures were incubated at 37°C, and samples were taken at 0, 24, 48, 72 and 96 h. For histatins containing mixtures, additional samples were taken after 2, 4, 8 and 16 h of incubation.
The samples were analyzed with a BioFocus 2000 capillary zone electrophoresis system (Bio-Rad Laboratories, Hercules, CA, USA) equipped with an uncoated fused-silica capillary of internal diameter 50 μm and a length of 24 cm. Samples were loaded by pressure injection (5 psi/sec). Separation was performed at 10 kV (cathode at the detector side) at 20°C using 0.1 M phosphate buffer (pH 2.5) as electrolyte and monitored continuously at 200 nm. Peaks were quantified with the BioFocus Integrator software. In order to quantify the percentage of intact peptides remaining after incubation with CWE, the ratios of histatins, rhIL-6 or rhCXCL8 to internal standard was set at 100% at 0h, and the ratios at the other incubation time points were related to this.

[2] = experiment 1, average of four replicates
[3] = experiment 2, average of four replicates
[4] = experiment 3, average of four replicates
[5] = experiment 4, average of four replicates

| Substance | Migration of dermal fibroblasts in scratch assay, 8 h exposure (dermal fibroblasts; [2]) | Migration of dermal fibroblasts in scratch assay, 8 h exposure (dermal fibroblasts; [3]) | Migration of dermal fibroblasts in scratch assay, 8 h exposure (dermal fibroblasts; [4]) | Migration of dermal fibroblasts in scratch assay, 8 h exposure (dermal fibroblasts; [5]) | Migration of dermal fibroblasts in scratch assay, 96 h exposure (dermal fibroblasts; [2]) | Migration of dermal fibroblasts in scratch assay, 96 h exposure (dermal fibroblasts; [3]) | Migration of dermal fibroblasts in scratch assay, 96 h exposure (dermal fibroblasts; [4]) | Migration of dermal fibroblasts in scratch assay, 96 h exposure (dermal fibroblasts; [5]) | Starting material remaining intact after 96 h in CWE [1] | Degradation in CWE in 96 h [1] |
| --- | --- | --- | --- | --- | --- | --- | --- | --- | --- | --- |
| rhCXCL8: recombinant human CXCL8; source not split at this label (migration assay used CXCL8 (6–77) from R&D) | 1.29 | 1.35 | 1.63 | 2.13 | 1.13 | 1.58 | 1.46 | 1.64 | approximately 80% | ~ 40% |
| rhIL-6: recombinant human IL-6; source not split at this label | 1.22 | 1.38 | 1.91 | 2.25 | 1.7 | 1.23 | 1.5 | 2.03 | more than 55% | ~ 40% |
